Data on seven molecules can be found in PubChem BioAssay AID2060359 (Molecular Pharmacology Branch, DTP, NCI, 2025).

Structures are written as SMILES. Several values for one entry are separate records, joined by “and”; a condition that tells them apart may be missing. Equal values may be shown once. Some results are limits rather than exact numbers.

For the assay, the system named is 276233-004-R-J1-PDC spheroids with HUVEC/MSC, viability. As to the kind of experiment: Anticancer human tumor 276233-004-R-J1-PDC patient-derived colon adenocarcinoma cell line growth inhibition [TAK]. As to conditions: for viability, T/C: stronger effect = lower value. From the text: Combinatorial screen of targeted agents with TAK-243 and ipatasertib in multi-cell type tumor spheroids
A high-throughput screen of multi-cell type tumor spheroids was designed to identify active combinations of targeted small molecules and TAK-243 or ipatasertib. Complex spheroids include a stromal component modeled by human endothelial cells (HUVEC) and fibroblasts modeled by human mesenchymal stem cells (MSCs). The concentration ranges selected for each drug and investigational agent were based upon clinically achievable concentrations if the clinical Cmax of the agent was known.
Compounds. The drugs and investigational agents: TAK-243 (785004), ipatasertib (767898), everolimus (733504), selumetinib (741078), bortezomib (756655), trametinib (758246), ixazomib (758254), vemurafenib (761431), dabrafenib (764134), sapanisertib (764658), alpelisib (765974), and copanlisib (816437), were obtained from the National Cancer Institute (NCI) Developmental Therapeutics Program Chemical Repository. The FDA-approved anticancer drug set is available from the NCI Developmental Therapeutics Program. […] The stock solutions were prepared in dimethyl sulfoxide (DMSO, Sigma-Aldrich, St. Louis, MO, cat. D2650) at 800-fold the tested concentration and stored at -70 degrees C prior to their use. All drugs and investigational agents were tested over a range starting from a high concentration at or near the clinical Cmax and decreasing in half-log increments. If the clinical Cmax for an agent had not been determined, the highest concentration tested was 10 microM.
NCI60 Cell Culture. NCI60 cell lines were obtained from the NCI Developmental Therapeutics Program Tumor Repository. For each lot of cells, the Repository performed Applied Biosystems AmpFLSTR Identifiler testing with PCR amplification to confirm consistency with the published Identifier STR profile for each cell line. Cells were kept in continuous culture for no more than 20 passages. The optimal seeding densities for each of the cell lines at each time point assessed were determined prior to performing the concentration response studies. Briefly, the NCI60 human tumor lines were grown as monolayers in RPMI 1640 medium supplemented with 10% FBS and 2 mmol/L L-glutamine.
An additional 2 lines were from the NCI60 cell line panel including melanomas, MALME-3M and SK-MEL-2. Pooled donor human umbilical vein endothelial cells (HUVEC, Lonza, cat. CC-2519) and human mesenchymal stem cells (hMSC, Lonza, cat. PT-2501) were purchased from Lonza (Walkersville, MD).
PDMR cell lines were grown in complete medium (DC medium): Dulbecco's modified Eagle's medium (DMEM)/F12 supplemented with 5% fetal bovine serum (FBS), 2 mM L-glutamine, 100 U/mL penicillin and 100 µg/ml streptomycin, 0.4 µg/ml hydrocortisone, 10 ng/ml epidermal growth factor (EGF) recombinant human protein, 24 µg/mL adenine, and 0.1 mg/mL primocin. During culture from frozen stock vials, PDMR cells were cultured in the same medium containing 10 µM Y-27632 (see Table 3). The PDCs were cultured in complete DMEM/F12 media without 10 microM Y-27632 dihydrochloride for at least two passages prior to the screen. The pooled donor HUVEC and hMSC were cultured in endothelial cell growth medium 2 (PromoCell, Heidelberg, Germany, cat. C-22011) and mesenchymal stem cell growth medium 2 (PromoCell, cat. C-28009), respectively. For all experiments, HUVEC and hMSC were used at passages </=5.
For the pre-screen, cell seeding densities were determined from a titration spanning the range from 5,000 to 313 cells per well. The mct-spheroids including 60% malignant cells, 25% HUVEC and 15% MSC dispensed as a mixture into U-bottom Ultra-Low Attachment 384-well plates (Corning, NY)
High-throughput Drug Combination Screening.
Prior to their inoculation into 384-well plates, malignant cells, HUVEC, and hMSC were removed from T flasks using TrypLE express (Thermo Fisher Scientific, cat. 12605036) and harvested by centrifugation for 5 min at 233 x g. […]

Where [1] appears, read: curve of first compound, second compound 0.3 µM.
The mark [2] stands for this setting: curve of first compound, second compound 0.949 µM.
Setting [3] is: curve of first compound, second compound 3 µM.
The mark [4] stands for this setting: curve of first compound, second compound 9.49 µM.
The mark [5] stands for this setting: curve of first compound, second compound 30 µM.
The mark [6] stands for this setting: second compound 0.3 µM, first compound 0.316 µM.
Setting [7] is: second compound 0.3 µM, first compound 1 µM.
Where [8] appears, read: second compound 0.3 µM, first compound 3.16 µM.
[9] abbreviates: second compound 0.3 µM, first compound 10 µM.
Setting [10] is: second compound 0.949 µM, first compound 0.316 µM.
The mark [11] stands for this setting: second compound 0.949 µM, first compound 1 µM.
[12] abbreviates: second compound 0.949 µM, first compound 3.16 µM.
Where [13] appears, read: second compound 0.949 µM, first compound 10 µM.
Where [14] appears, read: second compound 3 µM, first compound 0.316 µM.
The mark [15] stands for this setting: second compound 3 µM, first compound 1 µM.
[16] abbreviates: second compound 3 µM, first compound 3.16 µM.
Setting [17] is: second compound 3 µM, first compound 10 µM.
The mark [18] stands for this setting: second compound 9.49 µM, first compound 0.316 µM.
Setting [19] is: second compound 9.49 µM, first compound 1 µM.
Where [20] appears, read: second compound 9.49 µM, first compound 3.16 µM.
[21] abbreviates: second compound 9.49 µM, first compound 10 µM.
Setting [22] is: second compound 30 µM, first compound 0.316 µM.
Where [23] appears, read: second compound 30 µM, first compound 1 µM.
Setting [24] is: second compound 30 µM, first compound 3.16 µM.
The mark [25] stands for this setting: second compound 30 µM, first compound 10 µM.
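Further: spheroids exposed to drugs for seven days before the viability read.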

Consider `CCCS(=O)(=O)Nc1ccc(F)c(C(=O)c2c[nH]c3ncc(-c4ccc(Cl)cc4)cc23)c1F` + CC(C)NCC(C(=O)N1CCN(c2ncnc3c2C(C)CC3O)CC1)c1ccc(Cl)cc1, for which the IC50 (in general, the concentration that gives 50% inhibition) under setting [1] is greater than 100 µM; the IC50 under setting [2] was greater than 100 µM; the IC50 under setting [3] was greater than 100 µM; the IC50 under setting [4] was greater than 100 µM; the half-inhibitory concentration (IC50) under setting [5] was greater than 100 µM. The viability, T/C (as a rule, the ratio of treated to control) under setting [6] is 83.8%; the viability, T/C under setting [7] is 99.5%; the viability, T/C under setting [8] is 96.9%; the viability, T/C under setting [9] is 102%; the viability, T/C (second compound 0.3 µM, first compound 31.6 µM) was 95.7%; the viability, T/C (second compound 0.3 µM, first compound 100 µM) is 120%. Besides, the viability, T/C is 86.9% under setting [10]; 89.7% under setting [11]; 86.4% under setting [12]; 69.3% under setting [13]; 87.2% (second compound 0.949 µM, first compound 31.6 µM); 86.9% (second compound 0.949 µM, first compound 100 µM). Besides, the viability, T/C runs as follows: under setting [14], 72.7%; under setting [15], 77.3%; under setting [16], 91.2%; under setting [17], 76.9%; (second compound 3 µM, first compound 31.6 µM) 68.7%; (second compound 3 µM, first compound 100 µM) 74.5%. Also, the viability, T/C runs as follows: under setting [18], 63.8%; under setting [19], 70%; under setting [20], 72.2%; under setting [21], 62.8%; (second compound 9.49 µM, first compound 31.6 µM) 92.2%; (second compound 9.49 µM, first compound 100 µM) 68.8%. In addition, the viability, T/C is 68.4% under setting [22]; 61.8% under setting [23]; 79% under setting [24]; 72.1% under setting [25]; 59.5% (second compound 30 µM, first compound 31.6 µM); 63.5% (second compound 30 µM, first compound 100 µM).
With `COc1c(OCCCN2CCOCC2)ccc2c3n(c(=NC(=O)c4cnc(N)nc4)nc12)CCN3`, the viability, T/C by setting is: (compound 0.00316 µM) 82.5% and 97.5%; (compound 0.01 µM) 64.3% and 80.6%; (compound 0.0316 µM) 55.6% and 59.9%; (compound 0.1 µM) 50.8% and 57.9%; (compound 0.316 µM) 43.1% and 47.6%; (compound 1 µM) 47.2% and 63.4%.
Take `CC(C)n1nc(-c2ccc3oc(N)nc3c2)c2c(N)ncnc21`: the viability, T/C was 104% and 103% (compound 0.000316 µM); 116% and 96.9% (compound 0.001 µM); 90.4% and 95.4% (compound 0.00316 µM); 76.1% and 71.7% (compound 0.01 µM); 82.8% and 66.4% (compound 0.0316 µM); 62% and 57.5% (compound 0.1 µM). For the same molecule, for the setting “curve of compound”, the IC50 was greater than 0.1 µM.
For the molecule `CC(C)CC(NC(=O)CNC(=O)c1cc(Cl)ccc1Cl)B1OC(=O)CC(CC(=O)O)(C(=O)O)O1` (centres undefined), the viability, T/C runs as follows: (compound 0.000316 µM) 99.7% and 101%; (compound 0.001 µM) 110% and 108%; (compound 0.00316 µM) 102% and 83.4%; (compound 0.01 µM) 103% and 92.3%; (compound 0.0316 µM) 91.4% and 105%; (compound 0.1 µM) 19.5% and 23.7%. Also, the IC50 (curve of compound) is 0.0614 µM and 0.0665 µM.
Regarding `CC(C)CC(NC(=O)C(Cc1ccccc1)NC(=O)c1cnccn1)B(O)O` (centres undefined), the viability, T/C is 107% and 98.8% (compound 31.6 pM); 88.1% and 105% (compound 0.0001 µM); 97.6% and 93.5% (compound 0.000316 µM); 91.4% and 106% (compound 0.001 µM); 89.8% and 112% (compound 0.00316 µM); 12.6% and 10% (compound 0.01 µM). The 50% inhibitory concentration (IC50) (curve of compound) was 0.00572 µM and 0.0061 µM.
For the molecule `COC1CC2CCC(C)C(O)(O2)C(=O)C(=O)N2CCCCC2C(=O)OC(C(C)CC2CCC(OCCO)C(OC)C2)CC(=O)C(C)C=C(C)C(O)C(OC)C(=O)C(C)CC(C)C=CC=CC=C1C` (centres undefined), the viability, T/C (compound 0.000316 µM) is 107% and 100%; the viability, T/C (compound 0.001 µM) is 94.7% and 93.2%; the viability, T/C (compound 0.00316 µM) is 83.6% and 81.6%; the viability, T/C (compound 0.01 µM) was 78.3% and 67.6%; the viability, T/C (compound 0.0316 µM) was 77.4% and 80.3%; the viability, T/C (compound 0.1 µM) was 66.3% and 64.1%. The IC50 (curve of compound) is greater than 0.1 µM.
Consider `CC(C)(C)c1nc(-c2cccc(NS(=O)(=O)c3c(F)cccc3F)c2F)c(-c2ccnc(N)n2)s1` + CC(C)NCC(C(=O)N1CCN(c2ncnc3c2C(C)CC3O)CC1)c1ccc(Cl)cc1, for which the IC50 runs as follows: under setting [1], greater than 10 µM; under setting [2], greater than 10 µM; under setting [3], greater than 10 µM; under setting [4], greater than 10 µM; under setting [5], greater than 10 µM. For the same molecule, the viability, T/C reads like this: (second compound 0.3 µM, first compound 0.0316 µM) 109%; (second compound 0.3 µM, first compound 0.1 µM) 92.8%; under setting [6], 110%; under setting [7], 90.7%; under setting [8], 65.1%; under setting [9], 82.6%. Also, the viability, T/C reads like this: (second compound 0.949 µM, first compound 0.0316 µM) 101%; (second compound 0.949 µM, first compound 0.1 µM) 96.4%; under setting [10], 86.8%; under setting [11], 84.4%; under setting [12], 73.8%; under setting [13], 71.8%. For the same molecule, the viability, T/C was 80.6% (second compound 3 µM, first compound 0.0316 µM); 78.3% (second compound 3 µM, first compound 0.1 µM); 91.1% under setting [14]; 61.1% under setting [15]; 63.5% under setting [16]; 65.5% under setting [17]. Besides, the viability, T/C reads like this: (second compound 9.49 µM, first compound 0.0316 µM) 73.2%; (second compound 9.49 µM, first compound 0.1 µM) 78.8%; under setting [18], 68.2%; under setting [19], 64.7%; under setting [20], 83.1%; under setting [21], 57%. The viability, T/C runs as follows: (second compound 30 µM, first compound 0.0316 µM) 61.9%; (second compound 30 µM, first compound 0.1 µM) 73.8%; under setting [22], 64.6%; under setting [23], 70.1%; under setting [24], 67.5%; under setting [25], 75.3%.
